Assay results: ChEMBL document CHEMBL1201862, “PubChem BioAssay data set” (2004)
“And” between values parts separate entries of the source, which are not always exact repeats. Equal values may be shown once.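 Grown in 96-well plates, cells were treated for 48 hours with each compound at five concentrations. Insufficient inhibition: endpoint recorded as highest concentration tested. At the GI50, growth is halved.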 The source made the active and inactive calls. Cut-off read from the data, not from the text of the source: active = GI50 up to about 1.1 µM and inactive = higher.

What was measured:
Test in all cases: inhibition of tumour cell growth, NCI panel, 48 h
MDA-MB-231 = tested on: MDA-MB-231
UO-31 = tested on: UO-31
Hs-578T = tested on: Hs-578T
SK-MEL-5 = tested on: SK-MEL-5
IGROV-1 = tested on: IGROV-1
UACC-257 = tested on: UACC-257
TK-10 = tested on: TK-10
SK-MEL-2 = tested on: SK-MEL-2
KM12 = tested on: KM12
Malme-3M = tested on: Malme-3M
A498 = tested on: A498
OVCAR-8 = tested on: OVCAR-8
NCI-H460 = tested on: NCI-H460
SW-620 = tested on: SW-620
786-0 = tested on: 786-0
OVCAR-4 = tested on: OVCAR-4
HT-29 = tested on: HT-29
SN12C = tested on: SN12C
SK-MEL-28 = tested on: SK-MEL-28
SK-OV-3 = tested on: SK-OV-3
RXF 393 = tested on: RXF 393
K562 = tested on: K562
SNB-19 = tested on: SNB-19
NCI-H522 = tested on: NCI-H522
HCC 2998 = tested on: HCC 2998
HCT-116 = tested on: HCT-116
COLO 205 = tested on: COLO 205
CAKI-1 = tested on: CAKI-1
RPMI-8226 = tested on: RPMI-8226
SR = tested on: SR
DU-145 = tested on: DU-145
HOP-92 = tested on: HOP-92
T47D = tested on: T47D
SF-295 = tested on: SF-295
MOLT-4 = tested on: MOLT-4
MDA-MB-435 = tested on: MDA-MB-435
A549 = tested on: A549
NCI-H23 = tested on: NCI-H23
PC-3 = tested on: PC-3
SNB-75 = tested on: SNB-75
NCI/ADR-RES = tested on: NCI/ADR-RES
CCRF-CEM = tested on: CCRF-CEM
LOX IMVI = tested on: LOX IMVI
HL-60 = tested on: HL-60
HOP-62 = tested on: HOP-62
OVCAR-5 = tested on: OVCAR-5
UACC-62 = tested on: UACC-62
NCI-H226 = tested on: NCI-H226
EKVX = tested on: EKVX
U-251 = tested on: U-251
SF-268 = tested on: SF-268
SF-539 = tested on: SF-539
HCT-15 = tested on: HCT-15
ACHN = tested on: ACHN
M14 = tested on: M14
MCF7 = tested on: MCF7
OVCAR-3 = tested on: OVCAR-3
MDA-N = tested on: MDA-N

For Cn1/c(=N\c2ccc(Cl)cc2)sc2ccccc21, the GI50 (MDA-MB-231) was 35.5 µM (inactive), the GI50 (UO-31) was 26.1 µM (inactive) and the GI50 (Hs-578T) was 62.4 µM (inactive). For the same compound, the GI50 (SK-MEL-5) was 27.7 µM (inactive), the GI50 (IGROV-1) was 55.3 µM (inactive) and the GI50 (UACC-257) was 35.7 µM (inactive). The GI50 (TK-10) was 43 µM (inactive), the GI50 (SK-MEL-2) was 39.4 µM (inactive) and the GI50 (KM12) was 21.9 µM (inactive). The GI50 (Malme-3M) was 57.7 µM (inactive), the GI50 (A498) was 55.2 µM (inactive) and the GI50 (OVCAR-8) was 38.5 µM (inactive). The GI50 (NCI-H460) was 40.7 µM (inactive), the GI50 (SW-620) was 39.8 µM (inactive) and the GI50 (786-0) was 37.7 µM (inactive). The GI50 (OVCAR-4) was > 100 µM (inactive), the GI50 (HT-29) was 32.7 µM (inactive) and the GI50 (SN12C) was 75.3 µM (inactive). The GI50 (SK-MEL-28) was > 100 µM (inactive), the GI50 (SK-OV-3) was > 100 µM (inactive) and the GI50 (RXF 393) was 50.8 µM (inactive). The GI50 (K562) was 57.9 µM (inactive), the GI50 (SNB-19) was > 100 µM (inactive) and the GI50 (NCI-H522) was 4.98 µM (inactive). For the same compound, the GI50 (HCC 2998) was 23.7 µM (inactive), the GI50 (HCT-116) was 37 µM (inactive) and the GI50 (COLO 205) was 22.3 µM (inactive). The GI50 (CAKI-1) was 34 µM (inactive), the GI50 (RPMI-8226) was 92.3 µM (inactive) and the GI50 (SR) was > 100 µM (inactive). For the same compound, the GI50 (DU-145) was 26.6 µM (inactive), the GI50 (HOP-92) was 23.3 µM (inactive) and the GI50 (T47D) was 15 µM (inactive). The GI50 (SF-295) was 33.4 µM (inactive), the GI50 (MOLT-4) was 48.2 µM (inactive) and the GI50 (MDA-MB-435) was 42.1 µM (inactive). For the same compound, the GI50 (A549) was 32.5 µM (inactive), the GI50 (NCI-H23) was 38.9 µM (inactive) and the GI50 (PC-3) was 37 µM (inactive). The GI50 (SNB-75) was 45.8 µM (inactive), the GI50 (NCI/ADR-RES) was 34.7 µM (inactive) and the GI50 (CCRF-CEM) was > 100 µM (inactive). The GI50 (LOX IMVI) was 34.7 µM (inactive), the GI50 (HL-60) was 44.9 µM (inactive) and the GI50 (HOP-62) was 71.3 µM (inactive). The GI50 (OVCAR-5) was 34.8 µM (inactive), the GI50 (UACC-62) was 40.6 µM (inactive) and the GI50 (NCI-H226) was 46 µM (inactive). The GI50 (EKVX) was 21.1 µM (inactive), the GI50 (U-251) was 52.5 µM (inactive) and the GI50 (SF-268) was > 100 µM (inactive). The GI50 (SF-539) was 85.1 µM (inactive), the GI50 (HCT-15) was 8.15 µM and the GI50 (ACHN) was 49.8 µM (inactive).

C=CCNc1nc(C#N)c(N)s1 was tested, and the GI50 (SK-MEL-5) was > 10 µM (inactive), the GI50 (IGROV-1) was > 10 µM (inactive) and the GI50 (SK-MEL-2) was > 10 µM (inactive). For the same compound, the GI50 (Malme-3M) was > 10 µM (inactive), the GI50 (M14) was > 10 µM (inactive) and the GI50 (NCI-H460) was > 10 µM (inactive). For the same compound, the GI50 (SW-620) was > 10 µM (inactive), the GI50 (786-0) was > 10 µM (inactive) and the GI50 (OVCAR-4) was > 10 µM (inactive). The GI50 (SK-MEL-28) was > 10 µM (inactive), the GI50 (SK-OV-3) was > 10 µM (inactive) and the GI50 (RXF 393) was > 10 µM (inactive). For the same compound, the GI50 (K562) was > 10 µM (inactive), the GI50 (COLO 205) was > 10 µM (inactive) and the GI50 (CAKI-1) was > 10 µM (inactive). For the same compound, the GI50 (RPMI-8226) was > 10 µM (inactive), the GI50 (SR) was > 10 µM (inactive) and the GI50 (HOP-92) was > 10 µM (inactive). For the same compound, the GI50 (T47D) was > 10 µM (inactive), the GI50 (MOLT-4) was > 10 µM (inactive) and the GI50 (MDA-MB-435) was > 10 µM (inactive). The GI50 (MCF7) was > 10 µM (inactive), the GI50 (A549) was > 10 µM (inactive) and the GI50 (NCI-H23) was > 10 µM (inactive). For the same compound, the GI50 (SNB-75) was > 10 µM (inactive), the GI50 (NCI/ADR-RES) was > 10 µM (inactive) and the GI50 (CCRF-CEM) was > 10 µM (inactive). For the same compound, the GI50 (HL-60) was > 10 µM (inactive), the GI50 (HOP-62) was > 10 µM (inactive) and the GI50 (OVCAR-5) was > 10 µM (inactive). The GI50 (UACC-62) was > 10 µM (inactive), the GI50 (U-251) was > 10 µM (inactive) and the GI50 (SF-268) was > 10 µM (inactive). The GI50 (ACHN) was > 10 µM (inactive).

In the case of CCc1c(C)c(C#N)c(=S)n(C2OC(COC(C)=O)C(OC(C)=O)C(OC(C)=O)C2OC(C)=O)c1C (stereo not given), the GI50 (SK-MEL-5) is reported as > 100 µM (inactive), the GI50 (IGROV-1) is reported as > 100 µM (inactive) and the GI50 (UACC-257) is reported as > 100 µM (inactive). The GI50 (SK-MEL-2) was 13 µM (inactive), the GI50 (KM12) was > 100 µM (inactive) and the GI50 (Malme-3M) was > 100 µM (inactive). The GI50 (OVCAR-8) was > 100 µM (inactive), the GI50 (M14) was 39.4 µM (inactive) and 46.2 µM (inactive) and the GI50 (NCI-H460) was > 100 µM (inactive). For the same compound, the GI50 (SW-620) was > 100 µM (inactive), the GI50 (OVCAR-4) was > 100 µM (inactive) and 80.7 µM (inactive) and the GI50 (HT-29) was > 100 µM (inactive). For the same compound, the GI50 (SN12C) was > 100 µM (inactive), the GI50 (SK-MEL-28) was > 100 µM (inactive) and the GI50 (OVCAR-3) was > 100 µM (inactive). For the same compound, the GI50 (K562) was > 100 µM (inactive), the GI50 (NCI-H522) was > 100 µM (inactive) and 52.8 µM (inactive) and the GI50 (HCC 2998) was > 100 µM (inactive). The GI50 (MDA-N) was > 100 µM (inactive), the GI50 (COLO 205) was > 100 µM (inactive) and the GI50 (CAKI-1) was > 100 µM (inactive). For the same compound, the GI50 (SR) was > 100 µM (inactive), the GI50 (DU-145) was > 100 µM (inactive) and the GI50 (T47D) was > 100 µM (inactive). The GI50 (MOLT-4) was > 100 µM (inactive), the GI50 (MDA-MB-435) was > 100 µM (inactive) and the GI50 (MCF7) was > 100 µM (inactive). For the same compound, the GI50 (A549) was 92.9 µM (inactive), the GI50 (NCI-H23) was > 100 µM (inactive) and the GI50 (SNB-75) was 0.0113 µM (active). The GI50 (NCI/ADR-RES) was > 100 µM (inactive), the GI50 (CCRF-CEM) was > 100 µM (inactive) and the GI50 (LOX IMVI) was > 100 µM (inactive). The GI50 (HL-60) was > 100 µM (inactive), the GI50 (EKVX) was 87.1 µM (inactive) and the GI50 (SF-268) was > 100 µM (inactive) and 73.5 µM (inactive). The GI50 (HCT-15) was > 100 µM.
